Assays:
STAM™ mice = assay: STAM mouse NASH model (Example 6): activated hepatic stellate cells, α-smooth muscle actin staining; assay type: in vivo; conditions: individual animals
Protocol: Amino Acid Composition A-1 and Obeticholic acid (6α-ethyl-chenodeoxycholic acid; “OCA”) were tested for their ability to treat NASH in the STAM™ model (Stelic Institute & Co., Tokyo, Japan; Saito K. et al., 2015 Sci Rep 5:12466). Two additional groups of normal C57BL/6 mice fed standard chow and vehicle treated STAM™ mice were included as controls. All animals receiving treatment or vehicle were treated starting at 6 weeks until 9 weeks of age. Compounds were administered via oral gavage, with a dose volume of 10 ml/kg. Amino Acid Composition A-1 was administered twice daily at a dose of 1500 mg/kg, and OCA was administered once daily at a dose of 30 mg/kg.
STAM™ is a model for non-alcoholic steatohepatitis (NASH) and hepatocellular carcinoma (HCC), developed by SMC Laboratories, Inc. and created by the combination of chemical and dietary interventions using C57BL/6 mice (Saito K. et al., 2015 Sci Rep 5:12466). Mice are treated with a low dose of streptozotocin at birth and fed a high fat diet starting at 4 weeks. Evidence of fatty liver is present by 5 weeks, followed by NASH by 7 weeks and fibrosis by 9 weeks. […]
Liver sections of all mice were stained for the marker α-smooth muscle actin (αSMA) to identify activated hepatic stellate cells. Images were quantified using the percent of positively stained area was used as a measure of stellate cell activation. […]

FATZO mice = assay: FATZO mouse NASH model (Example 15): liver histology (NAS, fibrosis score, Sirius Red, Oil Red O); assay type: in vivo; conditions: FATZO mice on WDF, 4 weeks
Text: NASH was induced in 60 male FATZO mice by a western diet (Research Diet # D12079B; fat 40% kcal, protein 17% kcal, carbohydrate 43% kcal) supplemented with 5% fructose in the drinking water (WDF) during a 16 week induction phase. Diets and water were available ad libitum. Littermate control male FATZO mice fed with a control diet (n=6, Purina #5008; fat 17% kcal, protein 27% kcal, carbohydrate 56% kcal) and sterile water were set up for control purpose. Mice were housed in plastic cages with microisolator. Sterilized bedding was replaced once a week. Mice were housed three per cage and maintained on a twelve hour light cycle throughout study duration. Room temperature was monitored daily and maintained at 22-25° C. Body weight was recorded every week during the induction phase. […]
[…], […]+G, LRQNAC, OCA and Vehicle were administered by oral gavage at a volume of 10 mL/kg throughout the study. Dosages were calculated by daily body weight. […]
The livers were evaluated using the NASH liver criteria for scoring. In this mouse study, one cross section of liver for each case was analyzed with the NASH score system. […] The NAS can range from 0 to 8 and is calculated by the sum of scores of steatosis (0-3), lobular inflammation (0-3) and hepatocyte ballooning (0-2) from H&E stained sections. Fibrosis was scored (0-4) from picrosirius red stained slides. […]

[1] = tested on: LX-2 hepatic stellate cells; assay: TGFβ1-induced fibrogenic gene expression (Col1a1, Acta2, Timp2) in LX-2 cells, qRT-PCR; assay type: cell-based; set-up: key to Col1a1 gene expression, Mean: relative expression normalized to β-actin by ΔΔCt method; conditions: for Col1a1 gene expression, Mean: TGFβ1 Yes
[2] = individual amino acid at 1X HMDB concentration
[3] = individual amino acid at 50X HMDB concentration

SMILES | Activated hepatic stellate cells (mean positively stained area, α-smooth muscle actin): raw data (STAM™ mice) | NAFLD activity score (NAS) compared to vehicle, in words (FATZO mice) | Col1a1 gene expression, Mean [1, 2] | Col1a1 gene expression, Mean [1, 3] | Col1a1 expression of individual amino acids, in words ([1]; individual amino acid at 50× HMDB derived concentration)
CC[C@H]1[C@@H](O)[C@@H]2[C@H](CC[C@]3(C)[C@@H]([C@H](C)CCC(=O)O)CC[C@@H]23)[C@@]2(C)CC[C@@H](O)C[C@@H]12 [OCA, 6α-ethyl-chenodeoxycholic acid] | 1.5 | no significant effect | – | – | –
N=C(N)NCCC[C@H](N)C(=O)O [ARG] | – | – | 1.620 | 1.970 | –
NC(=O)CC[C@H](N)C(=O)O [GLN] | – | – | 2.340 | 2.194 | –
N[C@@H](CS)C(=O)O [CYS] | – | – | 2.491 | 1.695 | –
N[C@@H](CS)C(=O)O [Cysteine, L-Cysteine] | – | – | – | – | significant decrease
CC(C)C[C@H](N)C(=O)O [LEU] | – | – | 1.901 | 2.372 | –
CC(C)[C@H](N)C(=O)O [VAL] | – | – | 2.093 | 2.203 | –
